Assays:
Type in all cases: in vivo, Wistar rats
[1] = test system: physical dependence from morphine (morphine abstinence); experiment: Morphine abstinence syndrome, signs scored in the open field test; conditions: Morphine − (morphine + compound); compound 3 x 20 mg/kg intramuscularly; one value for the three compounds
[2] = test system: nitrites and nitrates (NOx-); experiment: Measurement of nitrates/nitrites (NOx-) in brain regions after the morphine abstinence experiment; conditions: 3 x 20 mg/kg intramuscularly
In short: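 Rat brain regions homogenized in 20 mM HEPES pH 7.5 at 4 °C; deproteinized supernatants treated with nitrate reductase, 25 μM NADPH, 25 μM FAD (37 °C, 30 min), then DAN in acid; naphthotriazole fluorescence (ex 365/em 405 nm) against sodium nitrate standard, expressed as nmol/mg protein (Bradford).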

[3] = test system: nitric oxide synthase (NOS); experiment: Nitric oxide synthase activity in brain regions, radiometric [3H]L-citrulline method; conditions: 3 x 20 mg/kg intramuscularly
In short: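 Rat cortex, hippocampus, mesencephalon, striatum, brainstem, hypothalamus and cerebellum were homogenized in 20 mM HEPES pH 7.5, and the 11000 g supernatant was incubated 15-60 min at 37 °C with [3H]L-arginine, 0.2 mM CaCl2, FAD, FMN, NADPH and BH4. [3H]L-citrulline was counted after Dowex removal of arginine. Ca2+-dependent/independent activity was split using EDTA ± L-NAME, per mg Bradford protein.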

[4] = Groups Nos. 3-14, compound without morphine, one value for all 12 compounds
[5] = Morphine + compound, one value for the three compounds

| SMILES | Authentic differences (ξ-square criterion) in appearance of signs of abstinence: <<Wet dog>> shakes [1] | Authentic differences (ξ-square criterion) in appearance of signs of abstinence: Aggression [1] | Authentic differences (ξ-square criterion) in appearance of signs of abstinence: Convulsions [1] | Authentic differences (ξ-square criterion) in appearance of signs of abstinence: Diarrhea [1] | Authentic differences (ξ-square criterion) in appearance of signs of abstinence: Dyspnea [1] | Authentic differences (ξ-square criterion) in appearance of signs of abstinence: Forelimb jogging [1] | Authentic differences (ξ-square criterion) in appearance of signs of abstinence: Grit with teeth [1] | Authentic differences (ξ-square criterion) in appearance of signs of abstinence: Mastication [1] | Authentic differences (ξ-square criterion) in appearance of signs of abstinence: Piloerection [1] | Authentic differences (ξ-square criterion) in appearance of signs of abstinence: Ptosis [1] | Authentic differences (ξ-square criterion) in appearance of signs of abstinence: Rhinorrhea [1] | Authentic differences (ξ-square criterion) in appearance of signs of abstinence: Squeak when touched [1] | Nitrites, brainstem [2, 4] | Nitrites, cerebellum [2, 4] | Nitrites, cerebral cortex [2, 4] | Nitrites, hippocampus [2, 4] | Nitrites, hypothalamus [2, 4] | Nitrites, midbrain [2, 4] | Nitrites, striatum [2, 4] | Nitrites, brainstem [2, 5] | further results |
| --- | --- | --- | --- | --- | --- | --- | --- | --- | --- | --- | --- | --- | --- | --- | --- | --- | --- | --- | --- | --- | --- |
| Nc1cnc2c(=O)n([C@@H]3O[C@H](CO)[C@@H](O)[C@H]3O)[nH]c(=O)c2n1.[Na] [Compound 21, sodium salt of 3-amino-7-(β-D-ribofuranosile)pyrazino[2,3-d]-6H-pyridazine-5,8-dione] | 0.7821 | 0.7921 | 0.3456 | 0.0067 | 0.0567 | 0.6745 | 0.2994 | 0.1975 | 0.2567 | 0.0105 | 0.2131 | 0.1968 | 6.31 ± 0.58 nmol/mg of protein | 6.66 ± 0.63 nmol/mg of protein | 4.31 ± 0.37 nmol/mg of protein | 6.47 ± 0.72 nmol/mg of protein | 6.77 ± 0.83 nmol/mg of protein | 6.65 ± 0.70 nmol/mg of protein | 6.11 ± 0.29 nmol/mg of protein | 7.07 ± 0.85 nmol/mg of protein | Nitrites, cerebellum [2, 5]: 5.76 ± 0.49 nmol/mg of protein; Nitrites, cerebral cortex [2, 5]: 4.62 ± 0.27 nmol/mg of protein; Nitrites, hippocampus [2, 5]: 5.27 ± 0.41 nmol/mg of protein; Nitrites, hypothalamus [2, 5]: 6.87 ± 0.75 nmol/mg of protein; Nitrites, midbrain [2, 5]: 5.99 ± 0.58 nmol/mg of protein; Nitrites, striatum [2, 5]: 3.57 ± 0.42 nmol/mg of protein; Activity of NOS, hippocampus [3, 4]: 3.09 ± 0.16 nmol/min/mg of protein; Activity of NOS, hypothalamus [3, 4]: 5.45 ± 0.24 nmol/min/mg of protein; Activity of NOS, midbrain [3, 4]: 2.60 ± 0.29 nmol/min/mg of protein; Activity of NOS, striatum [3, 4]: 1.26 ± 0.08 nmol/min/mg of protein; Activity of NOS, hippocampus [3, 5]: 2.33 ± 0.11 nmol/min/mg of protein; Activity of NOS, hypothalamus [3, 5]: 5.47 ± 0.32 nmol/min/mg of protein; Activity of NOS, midbrain [3, 5]: 2.03 ± 0.31 nmol/min/mg of protein; Activity of NOS, striatum [3, 5]: 1.21 ± 0.10 nmol/min/mg of protein |
| O=C([O-])c1cnc2c(=O)[nH]n([C@@H]3O[C@H](CO)[C@@H](O)[C@H]3O)c(=O)c2n1.O=C([O-])c1cnc2c(=O)[nH]n([C@@H]3O[C@H](CO)[C@@H](O)[C@H]3O)c(=O)c2n1.[Na+].[Na+] [Compound 24, disodium salt of 2-carboxy-7-(β-D-ribofuranosile)pyrazino[2,3-d]-6H-pyridazine-5,8-dione] | 0.7821 | 0.7921 | 0.3456 | 0.0067 | 0.0567 | 0.6745 | 0.2994 | 0.1975 | 0.2567 | 0.0105 | 0.2131 | 0.1968 | 6.31 ± 0.58 nmol/mg of protein | 6.66 ± 0.63 nmol/mg of protein | 4.31 ± 0.37 nmol/mg of protein | 6.47 ± 0.72 nmol/mg of protein | 6.77 ± 0.83 nmol/mg of protein | 6.65 ± 0.70 nmol/mg of protein | 6.11 ± 0.29 nmol/mg of protein | 7.07 ± 0.85 nmol/mg of protein | Nitrites, cerebellum [2, 5]: 5.76 ± 0.49 nmol/mg of protein; Nitrites, cerebral cortex [2, 5]: 4.62 ± 0.27 nmol/mg of protein; Nitrites, hippocampus [2, 5]: 5.27 ± 0.41 nmol/mg of protein; Nitrites, hypothalamus [2, 5]: 6.87 ± 0.75 nmol/mg of protein; Nitrites, midbrain [2, 5]: 5.99 ± 0.58 nmol/mg of protein; Nitrites, striatum [2, 5]: 3.57 ± 0.42 nmol/mg of protein; Activity of NOS, hippocampus [3, 4]: 3.09 ± 0.16 nmol/min/mg of protein; Activity of NOS, hypothalamus [3, 4]: 5.45 ± 0.24 nmol/min/mg of protein; Activity of NOS, midbrain [3, 4]: 2.60 ± 0.29 nmol/min/mg of protein; Activity of NOS, striatum [3, 4]: 1.26 ± 0.08 nmol/min/mg of protein; Activity of NOS, hippocampus [3, 5]: 2.33 ± 0.11 nmol/min/mg of protein; Activity of NOS, hypothalamus [3, 5]: 5.47 ± 0.32 nmol/min/mg of protein; Activity of NOS, midbrain [3, 5]: 2.03 ± 0.31 nmol/min/mg of protein; Activity of NOS, striatum [3, 5]: 1.21 ± 0.10 nmol/min/mg of protein |
| O=c1[nH][nH]c(=O)c2nccnc12.[Li] [Compound 26, lithium salt of pyrazino[2,3-d]-6H-pyridazine-5,8-dione] | 0.7821 | 0.7921 | 0.3456 | 0.0067 | 0.0567 | 0.6745 | 0.2994 | 0.1975 | 0.2567 | 0.0105 | 0.2131 | 0.1968 | 6.31 ± 0.58 nmol/mg of protein | 6.66 ± 0.63 nmol/mg of protein | 4.31 ± 0.37 nmol/mg of protein | 6.47 ± 0.72 nmol/mg of protein | 6.77 ± 0.83 nmol/mg of protein | 6.65 ± 0.70 nmol/mg of protein | 6.11 ± 0.29 nmol/mg of protein | 7.07 ± 0.85 nmol/mg of protein | Nitrites, cerebellum [2, 5]: 5.76 ± 0.49 nmol/mg of protein; Nitrites, cerebral cortex [2, 5]: 4.62 ± 0.27 nmol/mg of protein; Nitrites, hippocampus [2, 5]: 5.27 ± 0.41 nmol/mg of protein; Nitrites, hypothalamus [2, 5]: 6.87 ± 0.75 nmol/mg of protein; Nitrites, midbrain [2, 5]: 5.99 ± 0.58 nmol/mg of protein; Nitrites, striatum [2, 5]: 3.57 ± 0.42 nmol/mg of protein; Activity of NOS, hippocampus [3, 4]: 3.09 ± 0.16 nmol/min/mg of protein; Activity of NOS, hypothalamus [3, 4]: 5.45 ± 0.24 nmol/min/mg of protein; Activity of NOS, midbrain [3, 4]: 2.60 ± 0.29 nmol/min/mg of protein; Activity of NOS, striatum [3, 4]: 1.26 ± 0.08 nmol/min/mg of protein; Activity of NOS, hippocampus [3, 5]: 2.33 ± 0.11 nmol/min/mg of protein; Activity of NOS, hypothalamus [3, 5]: 5.47 ± 0.32 nmol/min/mg of protein; Activity of NOS, midbrain [3, 5]: 2.03 ± 0.31 nmol/min/mg of protein; Activity of NOS, striatum [3, 5]: 1.21 ± 0.10 nmol/min/mg of protein |
| O=c1[nH]n([C@@H]2O[C@H](CO)[C@@H](O)[C@H]2O)c(=O)c2nc(Br)ncc12.[Na] [Compound 32, sodium salt of 2-bromine-7-(β-D-ribofuranosile)pyrimido[4,5-d]-6H-pyridazine-5,8-dione] | 1.0000 | 0.8456 | 0.5578 | 0.0001 | 0.0685 | 0.9321 | 0.7003 | 0.1888 | 0.2345 | 0.0232 | 0.2935 | 0.2035 | 6.31 ± 0.58 nmol/mg of protein | 6.66 ± 0.63 nmol/mg of protein | 4.31 ± 0.37 nmol/mg of protein | 6.47 ± 0.72 nmol/mg of protein | 6.77 ± 0.83 nmol/mg of protein | 6.65 ± 0.70 nmol/mg of protein | 6.11 ± 0.29 nmol/mg of protein | 6.87 ± 0.81 nmol/mg of protein | Nitrites, cerebellum [2, 5]: 5.93 ± 0.54 nmol/mg of protein; Nitrites, cerebral cortex [2, 5]: 4.84 ± 0.31 nmol/mg of protein; Nitrites, hippocampus [2, 5]: 5.31 ± 0.33 nmol/mg of protein; Nitrites, hypothalamus [2, 5]: 6.77 ± 0.46 nmol/mg of protein; Nitrites, midbrain [2, 5]: 5.95 ± 0.52 nmol/mg of protein; Nitrites, striatum [2, 5]: 3.57 ± 0.42 nmol/mg of protein; Activity of NOS, hippocampus [3, 4]: 3.09 ± 0.16 nmol/min/mg of protein; Activity of NOS, hypothalamus [3, 4]: 5.45 ± 0.24 nmol/min/mg of protein; Activity of NOS, midbrain [3, 4]: 2.60 ± 0.29 nmol/min/mg of protein; Activity of NOS, striatum [3, 4]: 1.26 ± 0.08 nmol/min/mg of protein; Activity of NOS, hippocampus [3, 5]: 2.65 ± 0.15 nmol/min/mg of protein; Activity of NOS, hypothalamus [3, 5]: 5.56 ± 0.34 nmol/min/mg of protein; Activity of NOS, midbrain [3, 5]: 1.89 ± 0.27 nmol/min/mg of protein; Activity of NOS, striatum [3, 5]: 1.34 ± 0.09 nmol/min/mg of protein |
